Assay results: the OligoGym collection
Several values for one entry are separate records, joined by “and”; a condition that tells them apart may be missing. Equal entries are not always repeated. HELM strings list units from the 5' end as sugar, base in round brackets, then linkage (d deoxyribose, r ribose, m 2'-O-methyl, p phosphodiester). Methylation of C is not given here. [moe] = 2'-O-(2-methoxyethyl) (MOE); [cEt] = constrained ethyl (cEt); [sp] = phosphorothioate linkage

Target: HBV
Conditions: ASO

Substance: RNA1{[moe](C)[sp].[moe](A)[sp].[moe](G)[sp].[moe](A)[sp].d(G)[sp].d(G)[sp].d(T)[sp].d(G)[sp].d(A)[sp].d(A)[sp].d(G)[sp].d(C)[sp].d(G)[sp].[moe](A)[sp].[moe](A)[sp].[moe](G)[sp].[moe](T)}$$$$V2.0
- target mRNA inhibition (HepG2, 0.07 µM): 60% and 45%

Substance: RNA1{[moe](C)[sp].[moe](A)[sp].[moe](G)[sp].d(A)[sp].d(G)[sp].d(G)[sp].d(T)[sp].d(G)[sp].d(A)[sp].d(A)[sp].d(G)[sp].d(C)[sp].d(G)[sp].[cEt](A)[sp].[cEt](A)[sp].[cEt](G)}$$$$V2.0
- target mRNA inhibition (HepG2, 0.07 µM): 60% and 62%

Substance: RNA1{[moe](C)[sp].[moe](C)[sp].[moe](A)[sp].[moe](A)[sp].[moe](T)[sp].d(T)[sp].d(T)[sp].d(A)[sp].d(T)[sp].d(G)[sp].d(C)[sp].d(C)[sp].d(T)[sp].d(A)[sp].[moe](C)[sp].[moe](A)[sp].[moe](G)}$$$$V2.0
- target mRNA inhibition (HepG2, 0.07 µM): 25% and 9%

Substance: RNA1{[moe](C)[sp].[moe](C)[sp].[moe](A)[sp].[moe](A)[sp].d(T)[sp].d(T)[sp].d(T)[sp].d(A)[sp].d(T)[sp].d(G)[sp].d(C)[sp].d(C)[sp].d(T)[sp].[moe](A)[sp].[moe](C)[sp].[moe](A)[sp].[moe](G)}$$$$V2.0
- target mRNA inhibition (HepG2, 0.07 µM): 34% and 11%

Substance: RNA1{[moe](C)[sp].[moe](C)[sp].[moe](A)[sp].d(C)[sp].d(T)[sp].d(G)[sp].d(A)[sp].d(A)[sp].d(C)[sp].d(A)[sp].d(A)[sp].d(A)[sp].d(T)[sp].[cEt](G)[sp].[cEt](G)[sp].[cEt](C)}$$$$V2.0
- target mRNA inhibition (HepG2, 0.07 µM): 77% and 78%

Substance: RNA1{[moe](C)[sp].[moe](C)[sp].d(A)[sp].d(A)[sp].d(T)[sp].d(T)[sp].d(T)[sp].d(A)[sp].d(T)[sp].d(G)[sp].d(C)[sp].[moe](C)[sp].[moe](T)[sp].[moe](A)[sp].[moe](C)[sp].[moe](A)[sp].[moe](G)}$$$$V2.0
- target mRNA inhibition (HepG2, 0.07 µM): 41% and 42%

Substance: RNA1{[moe](C)[sp].[moe](C)[sp].d(A)[sp].d(A)[sp].d(T)[sp].d(T)[sp].d(T)[sp].d(A)[sp].d(T)[sp].d(G)[sp].d(C)[sp].[moe](C)[sp].[moe](T)[sp].[moe](A)[sp].[moe](C)[sp].[moe](A)}$$$$V2.0
- target mRNA inhibition (HepG2, 0.07 µM): 13% and 22%

Substance: RNA1{[moe](C)[sp].[moe](C)[sp].d(G)[sp].d(C)[sp].d(A)[sp].d(G)[sp].d(T)[sp].d(A)[sp].d(T)[sp].d(G)[sp].d(G)[sp].[moe](A)[sp].[moe](T)[sp].[moe](C)[sp].[moe](G)[sp].[moe](G)[sp].[moe](C)}$$$$V2.0
- target mRNA inhibition (HepG2, 0.07 µM): 86% and 80%

Substance: RNA1{[moe](C)[sp].[moe](G)[sp].[moe](A)[sp].[moe](A)[sp].[moe](C)[sp].[moe](C)[sp].d(A)[sp].d(C)[sp].d(T)[sp].d(G)[sp].d(A)[sp].d(A)[sp].d(C)[sp].d(A)[sp].d(A)[sp].[moe](A)[sp].[moe](T)}$$$$V2.0
- target mRNA inhibition (HepG2, 0.07 µM): 0% and 20%

Substance: RNA1{[moe](C)[sp].[moe](G)[sp].[moe](A)[sp].[moe](A)[sp].[moe](C)[sp].d(C)[sp].d(A)[sp].d(C)[sp].d(T)[sp].d(G)[sp].d(A)[sp].d(A)[sp].d(C)[sp].d(A)[sp].[moe](A)[sp].[moe](A)}$$$$V2.0
- target mRNA inhibition (HepG2, 0.07 µM): 36% and 19%

Substance: RNA1{[moe](C)[sp].[moe](G)[sp].[moe](A)[sp].[moe](A)[sp].d(C)[sp].d(C)[sp].d(A)[sp].d(C)[sp].d(T)[sp].d(G)[sp].d(A)[sp].d(A)[sp].d(C)[sp].[moe](A)[sp].[moe](A)[sp].[moe](A)[sp].[moe](T)}$$$$V2.0
- target mRNA inhibition (HepG2, 0.07 µM): 48% and 41%

Substance: RNA1{[moe](C)[sp].[moe](G)[sp].[moe](C)[sp].[moe](A)[sp].[moe](G)[sp].d(T)[sp].d(A)[sp].d(T)[sp].d(G)[sp].d(G)[sp].d(A)[sp].d(T)[sp].d(C)[sp].d(G)[sp].[moe](G)[sp].[moe](C)[sp].[moe](A)}$$$$V2.0
- target mRNA inhibition (HepG2, 0.07 µM): 56% and 57%

Substance: RNA1{[moe](C)[sp].[moe](G)[sp].[moe](C)[sp].[moe](A)[sp].[moe](G)[sp].d(T)[sp].d(A)[sp].d(T)[sp].d(G)[sp].d(G)[sp].d(A)[sp].d(T)[sp].d(C)[sp].d(G)[sp].[moe](G)[sp].[moe](C)}$$$$V2.0
- target mRNA inhibition (HepG2, 0.07 µM): 64% and 57%

Substance: RNA1{[moe](C)[sp].[moe](G)[sp].[moe](C)[sp].d(A)[sp].d(G)[sp].d(T)[sp].d(A)[sp].d(T)[sp].d(G)[sp].d(G)[sp].d(A)[sp].d(T)[sp].[moe](C)[sp].[moe](G)[sp].[moe](G)[sp].[moe](C)[sp].[moe](A)}$$$$V2.0
- target mRNA inhibition (HepG2, 0.0092593 µM): 7%
- target mRNA inhibition (HepG2, 0.0277778 µM): 38%
- target mRNA inhibition (HepG2, 0.07 µM): 85% and 80%
- target mRNA inhibition (HepG2, 0.0833333 µM): 78%
- target mRNA inhibition (HepG2, 0.25 µM): 89%

Substance: RNA1{[moe](C)[sp].[moe](G)[sp].[moe](G)[sp].d(G)[sp].d(C)[sp].d(A)[sp].d(A)[sp].d(C)[sp].d(A)[sp].d(T)[sp].d(A)[sp].d(C)[sp].[moe](C)[sp].[moe](T)[sp].[moe](T)[sp].[moe](G)}$$$$V2.0
- target mRNA inhibition (HepG2, 0.07 µM): 56% and 45%

Substance: RNA1{[moe](C)[sp].[moe](G)[sp].[moe](G)[sp].d(G)[sp].d(C)[sp].d(A)[sp].d(A)[sp].d(C)[sp].d(A)[sp].d(T)[sp].d(A)[sp].d(C)[sp].d(C)[sp].[cEt](T)[sp].[cEt](T)[sp].[cEt](G)}$$$$V2.0
- target mRNA inhibition (HepG2, 0.07 µM): 56% and 65%

Substance: RNA1{[moe](C)[sp].[moe](G)[sp].[moe](T)[sp].[moe](G)[sp].[moe](C)[sp].d(A)[sp].d(G)[sp].d(A)[sp].d(G)[sp].d(G)[sp].d(T)[sp].d(G)[sp].d(A)[sp].d(A)[sp].[moe](G)[sp].[moe](C)[sp].[moe](G)}$$$$V2.0
- target mRNA inhibition (HepG2, 0.07 µM): 74% and 63%

Substance: RNA1{[moe](C)[sp].[moe](G)[sp].[moe](T)[sp].[moe](G)[sp].d(C)[sp].d(A)[sp].d(G)[sp].d(A)[sp].d(G)[sp].d(G)[sp].d(T)[sp].d(G)[sp].d(A)[sp].[moe](A)[sp].[moe](G)[sp].[moe](C)[sp].[moe](G)}$$$$V2.0
- target mRNA inhibition (HepG2, 0.07 µM): 58% and 43%

Substance: RNA1{[moe](C)[sp].[moe](G)[sp].[moe](T)[sp].d(G)[sp].d(C)[sp].d(A)[sp].d(G)[sp].d(A)[sp].d(G)[sp].d(G)[sp].d(T)[sp].d(G)[sp].[moe](A)[sp].[moe](A)[sp].[moe](G)[sp].[moe](C)}$$$$V2.0
- target mRNA inhibition (HepG2, 0.07 µM): 62% and 42%

Substance: RNA1{[moe](C)[sp].[moe](G)[sp].d(T)[sp].d(G)[sp].d(C)[sp].d(A)[sp].d(G)[sp].d(A)[sp].d(G)[sp].d(G)[sp].d(T)[sp].[moe](G)[sp].[moe](A)[sp].[moe](A)[sp].[moe](G)[sp].[moe](C)[sp].[moe](G)}$$$$V2.0
- target mRNA inhibition (HepG2, 0.07 µM): 74% and 68%

Substance: RNA1{[moe](C)[sp].[moe](T)[sp].[moe](A)[sp].d(G)[sp].d(T)[sp].d(A)[sp].d(A)[sp].d(A)[sp].d(C)[sp].d(T)[sp].d(G)[sp].d(A)[sp].[moe](G)[sp].[moe](C)[sp].[moe](C)[sp].[moe](A)}$$$$V2.0
- target mRNA inhibition (HepG2, 0.07 µM): 66% and 60%

Substance: RNA1{[moe](C)[sp].[moe](T)[sp].[moe](G)[sp].[moe](G)[sp].[moe](A)[sp].[moe](G)[sp].d(C)[sp].d(C)[sp].d(A)[sp].d(C)[sp].d(C)[sp].d(A)[sp].d(G)[sp].d(C)[sp].d(A)[sp].[moe](G)[sp].[moe](G)}$$$$V2.0
- target mRNA inhibition (HepG2, 0.07 µM): 54% and 50%

Substance: RNA1{[moe](C)[sp].[moe](T)[sp].[moe](G)[sp].[moe](G)[sp].[moe](A)[sp].d(G)[sp].d(C)[sp].d(C)[sp].d(A)[sp].d(C)[sp].d(C)[sp].d(A)[sp].d(G)[sp].d(C)[sp].[moe](A)[sp].[moe](G)[sp].[moe](G)}$$$$V2.0
- target mRNA inhibition (HepG2, 0.07 µM): 42% and 44%

Substance: RNA1{[moe](C)[sp].[moe](T)[sp].[moe](G)[sp].d(G)[sp].d(A)[sp].d(G)[sp].d(C)[sp].d(C)[sp].d(A)[sp].d(C)[sp].d(C)[sp].d(A)[sp].[moe](G)[sp].[moe](C)[sp].[moe](A)[sp].[moe](G)[sp].[moe](G)}$$$$V2.0
- target mRNA inhibition (HepG2, 0.07 µM): 79% and 64%

Substance: RNA1{[moe](G)[sp].[cEt](A)[sp].[cEt](A)[sp].d(C)[sp].d(C)[sp].d(A)[sp].d(C)[sp].d(T)[sp].d(G)[sp].d(A)[sp].d(A)[sp].d(C)[sp].d(A)[sp].[cEt](A)[sp].[cEt](A)[sp].[moe](T)}$$$$V2.0
- target mRNA inhibition (HepG2, 0.07 µM): 65% and 53%

Substance: RNA1{[moe](G)[sp].[cEt](A)[sp].[cEt](G)[sp].d(G)[sp].d(C)[sp].d(A)[sp].d(T)[sp].d(A)[sp].d(G)[sp].d(C)[sp].d(A)[sp].d(G)[sp].d(C)[sp].[cEt](A)[sp].[cEt](G)[sp].[moe](G)}$$$$V2.0
- target mRNA inhibition (HepG2, 0.07 µM): 64% and 67%

Substance: RNA1{[moe](G)[sp].[cEt](A)[sp].[cEt](G)[sp].d(T)[sp].d(T)[sp].d(C)[sp].d(C)[sp].d(G)[sp].d(C)[sp].d(A)[sp].d(G)[sp].d(T)[sp].d(A)[sp].[cEt](T)[sp].[cEt](G)[sp].[moe](G)}$$$$V2.0
- target mRNA inhibition (HepG2, 0.07 µM): 83% and 76%

Substance: RNA1{[moe](G)[sp].[cEt](A)[sp].d(A)[sp].d(G)[sp].d(T)[sp].d(C)[sp].d(C)[sp].d(A)[sp].d(C)[sp].d(C)[sp].d(A)[sp].d(C)[sp].[cEt](G)[sp].[moe](A)[sp].[cEt](G)[sp].[moe](T)}$$$$V2.0
- target mRNA inhibition (HepG2, 0.07 µM): 43% and 50%

Substance: RNA1{[moe](G)[sp].[cEt](C)[sp].[cEt](A)[sp].d(G)[sp].d(T)[sp].d(A)[sp].d(T)[sp].d(G)[sp].d(G)[sp].d(A)[sp].d(T)[sp].d(C)[sp].d(G)[sp].[cEt](G)[sp].[cEt](C)[sp].[moe](A)}$$$$V2.0
- target mRNA inhibition (HepG2, 0.07 µM): 77% and 75%

Substance: RNA1{[moe](G)[sp].[cEt](G)[sp].[cEt](A)[sp].d(G)[sp].d(T)[sp].d(T)[sp].d(C)[sp].d(C)[sp].d(G)[sp].d(C)[sp].d(A)[sp].d(G)[sp].d(T)[sp].[cEt](A)[sp].[cEt](T)[sp].[moe](G)}$$$$V2.0
- target mRNA inhibition (HepG2, 0.0092593 µM): 13%
- target mRNA inhibition (HepG2, 0.0277778 µM): 42%
- target mRNA inhibition (HepG2, 0.07 µM): 90% and 76%
- target mRNA inhibition (HepG2, 0.0833333 µM): 74%
- target mRNA inhibition (HepG2, 0.25 µM): 89%

Substance: RNA1{[moe](G)[sp].[cEt](T)[sp].[cEt](G)[sp].d(C)[sp].d(A)[sp].d(G)[sp].d(A)[sp].d(G)[sp].d(G)[sp].d(T)[sp].d(G)[sp].d(A)[sp].d(A)[sp].[cEt](G)[sp].[cEt](C)[sp].[moe](G)}$$$$V2.0
- target mRNA inhibition (HepG2, 0.07 µM): 67% and 70%

Substance: RNA1{[moe](G)[sp].[moe](A)[sp].[moe](A)[sp].[moe](C)[sp].[moe](C)[sp].d(A)[sp].d(C)[sp].d(T)[sp].d(G)[sp].d(A)[sp].d(A)[sp].d(C)[sp].d(A)[sp].d(A)[sp].[moe](A)[sp].[moe](T)}$$$$V2.0
- target mRNA inhibition (HepG2, 0.07 µM): 34% and 36%
